Test results from patent US11207310B2 (PRILENIA NEUROTHERAPEUTICS LTD., priority 2016, dated 2021).
Read-outs that look alike come from different tables or passages of the source.

Assays:
[1] = tested on: patients with HD; conditions: for TFC Domestic Chores, Δ to placebo: 52 weeks, Early Stage HD (TFC≥7)
Description: The TFC scale of the UHDRS is a standardized scale used to assess 5 functional domains associated with disability shown below (occupation, finances, domestic chores (e.g. laundry, washing dishes), activities of daily living, and care level). The TFC score has a range of 0-13 and is a well-established endpoint for trials aiming disease progression. […] The TFC score is accepted by regulators and often considered the most widely accepted tool for disease procession in HD patients. Additionally, TFC is considered the gold standard for measuring HD rate of functional decline. […] The floor and ceiling effects make TFC scores more sensitive to change in early stage HD than in late stage HD.
Domestic Chores: 0=unable, 1=impaired, 2=normal.

[2] = tested on: patients with HD
Procedure: The independence scale of the UHDRS is a rating scale where the patient's degree of independence was given in percentage, from 10% (tube fed, total bed care) to 100% (no special care needed). […] Patients with a UHDRS-IS score >90% at the screening visit were not eligible for the study.
It is a rating scale where the patient's degree of independence is given in percentage, from 10% (tube fed, total bed care) to 100% (no special care needed). […] The scale was assessed at screening, baseline, weeks 4, 12, 20, 26/Early Termination, 28 and 52/Early Termination.

[3] = 45 mg bid, Week 52, Stage 1 BL TFC 11-13
[4] = 67.5 mg bid, Week 26, Stage 1 BL TFC 11-13
[5] = 67.5 mg bid, Week 52, Stage 1 BL TFC 11-13
[6] = 90 mg bid, Week 26, Stage 1 BL TFC 11-13
[7] = 90 mg bid, Week 52, Stage 1 BL TFC 11-13
[8] = 112.5 mg bid, Week 26, Stage 1 BL TFC 11-13
[9] = 112.5 mg bid, Week 52, Stage 1 BL TFC 11-13

## CCCN1CCC(c2cccc(S(C)(=O)=O)c2)CC1 [pridopidine, 4-[3-(methylsulfonyl)phenyl]-1-propyl-piperidine]
[1]; [3]
  Change from baseline in UHDRS TFC Domestic Chores, Δ to Placebo: 0.49
[1]; 67.5 mg bid
  TFC Domestic Chores, Δ to placebo: 0.09
[1]; 67.5 mg bid, Week 26, ALL
  Change from baseline in UHDRS TFC Domestic Chores, Δ to Placebo: 0.02
[1]; [4]
  Change from baseline in UHDRS TFC Domestic Chores, Δ to Placebo: 0.21
[1]; 67.5 mg bid, Week 52, ALL
  Change from baseline in UHDRS TFC Domestic Chores, Δ to Placebo: −0.03
[1]; [5]
  Change from baseline in UHDRS TFC Domestic Chores, Δ to Placebo: 0.05
[1]; 90 mg bid
  TFC Domestic Chores, Δ to placebo: 0.16
[1]; 90 mg bid, Week 26, ALL
  Change from baseline in UHDRS TFC Domestic Chores, Δ to Placebo: 0
[1]; [6]
  Change from baseline in UHDRS TFC Domestic Chores, Δ to Placebo: 0.34
[1]; 90 mg bid, Week 52, ALL
  Change from baseline in UHDRS TFC Domestic Chores, Δ to Placebo: 0.05
[1]; [7]
  Change from baseline in UHDRS TFC Domestic Chores, Δ to Placebo: 0.1
[1]; 112.5 mg bid
  TFC Domestic Chores, Δ to placebo: 0.04
[1]; 112.5 mg bid, Week 26, ALL
  Change from baseline in UHDRS TFC Domestic Chores, Δ to Placebo: 0.06
[1]; [8]
  Change from baseline in UHDRS TFC Domestic Chores, Δ to Placebo: 0.47
[1]; 112.5 mg bid, Week 52, ALL
  Change from baseline in UHDRS TFC Domestic Chores, Δ to Placebo: 0.04
[1]; [9]
  Change from baseline in UHDRS TFC Domestic Chores, Δ to Placebo: 0.23
[2]; 45 mg bid, Week 26, ALL
  Change from baseline in UHDRS Independence Scale, Δ to placebo: 1.79
[2]; 45 mg bid, Week 26, BL TFC<7, p value 0.8796
  UHDRS Independence Scale, change from baseline, Δ to placebo: 0.3
[2]; 45 mg bid, Week 26, BL TFC≥7, p value 0.0128
  UHDRS Independence Scale, change from baseline, Wk 26 Δ to placebo: 2.22
[2]; 45 mg bid, Week 26, Stage 1 BL TFC 11-13
  Change from baseline in UHDRS Independence Scale, Δ to placebo: 4.94
[2]; 45 mg bid, Week 52, ALL
  Change from baseline in UHDRS Independence Scale, Δ to placebo: 0.86
[2]; 45 mg bid, Week 52, BL TFC<7, p value 0.5799
  UHDRS Independence Scale, change from baseline, Δ to placebo: −1.85
[2]; 45 mg bid, Week 52, BL TFC≥7, p value 0.1047
  UHDRS Independence Scale, change from baseline, Δ to placebo: 1.99
[2]; [3]
  Change from baseline in UHDRS Independence Scale, Δ to placebo: 3.05
[2]; 67.5 mg bid, Week 26, ALL
  Change from baseline in UHDRS Independence Scale, Δ to placebo: 0.3
[2]; 67.5 mg bid, Week 26, BL TFC<7, p value 0.8027
  UHDRS Independence Scale, change from baseline, Δ to placebo: −0.44
[2]; 67.5 mg bid, Week 26, BL TFC≥7, p value 0.2755
  UHDRS Independence Scale, change from baseline, Wk 26 Δ to placebo: 0.99
[2]; [4]
  Change from baseline in UHDRS Independence Scale, Δ to placebo: 2.27
[2]; 67.5 mg bid, Week 52, ALL
  Change from baseline in UHDRS Independence Scale, Δ to placebo: 0.25
[2]; 67.5 mg bid, Week 52, BL TFC<7, p value 0.2415
  UHDRS Independence Scale, change from baseline, Δ to placebo: −3.46
[2]; 67.5 mg bid, Week 52, BL TFC≥7, p value 0.0788
  UHDRS Independence Scale, change from baseline, Δ to placebo: 2.22
[2]; [5]
  Change from baseline in UHDRS Independence Scale, Δ to placebo: 0.91
[2]; 90 mg bid, Week 26, ALL
  Change from baseline in UHDRS Independence Scale, Δ to placebo: 0.78
[2]; 90 mg bid, Week 26, BL TFC<7, p value 0.9116
  UHDRS Independence Scale, change from baseline, Δ to placebo: 0.2
[2]; 90 mg bid, Week 26, BL TFC≥7, p value 0.0949
  UHDRS Independence Scale, change from baseline, Wk 26 Δ to placebo: 1.48
[2]; [6]
  Change from baseline in UHDRS Independence Scale, Δ to placebo: 1.73
[2]; 90 mg bid, Week 52, ALL
  Change from baseline in UHDRS Independence Scale, Δ to placebo: −0.07
[2]; 90 mg bid, Week 52, BL TFC<7, p value 0.0779
  UHDRS Independence Scale, change from baseline, Δ to placebo: −5.25
[2]; 90 mg bid, Week 52, BL TFC≥7, p value 0.0228
  UHDRS Independence Scale, change from baseline, Δ to placebo: 2.79
[2]; [7]
  Change from baseline in UHDRS Independence Scale, Δ to placebo: 1.16
[2]; 112.5 mg bid, Week 26, ALL
  Change from baseline in UHDRS Independence Scale, Δ to placebo: 1.41
[2]; 112.5 mg bid, Week 26, BL TFC<7, p value 0.3578
  UHDRS Independence Scale, change from baseline, Δ to placebo: 1.65
[2]; 112.5 mg bid, Week 26, BL TFC≥7, p value 0.0919
  UHDRS Independence Scale, change from baseline, Wk 26 Δ to placebo: 1.51
[2]; [8]
  Change from baseline in UHDRS Independence Scale, Δ to placebo: 2.38
[2]; 112.5 mg bid, Week 52, ALL
  Change from baseline in UHDRS Independence Scale, Δ to placebo: 0.18
[2]; 112.5 mg bid, Week 52, BL TFC<7, p value 0.8613
  UHDRS Independence Scale, change from baseline, Δ to placebo: −0.52
[2]; 112.5 mg bid, Week 52, BL TFC≥7, p value 0.7301
  UHDRS Independence Scale, change from baseline, Δ to placebo: 0.44
[2]; [9]
  Change from baseline in UHDRS Independence Scale, Δ to placebo: −1.61
[2]; any treatment group, week 52
  change from baseline in the UHDRS-IS: not statistically significant in any treatment group
